Results on two compounds are retold here after US11806340B2, “Methods of diagnosing and treating conduct disorder” (THE CHILDREN'S HOSPITAL OF PHILADELPHIA, priority 2015, dated 2023).

For series [1], the system named is ADHD subjects with CNV in an mGluR network gene. Put plainly: Open-label Phase Ib clinical trial of NFC-1 in adolescent ADHD subjects with a genetic alteration in an mGluR network gene. Format: in vivo, human. As to the method:
An open-label Phase Ib clinical trial was conducted to investigate the safety, pharmacokinetics and efficacy of NFC-1 (fasoracetam monohydrate) in adolescent subjects between the ages of 12 and 17 previously diagnosed with ADHD who also had at least one genetic alteration in an mGluR network gene.
The study included 30 ADHD subjects who were between ages 12 and 17, of any ancestry or race, of weight within the 5th to 95th percentile for their age, and otherwise judged to be in good medical health. […] Seventeen of the 30 subjects have a CNV in a tier 1 mGluR network gene, while 7 subjects have a CNV in a tier 2 gene and 6 in a tier 3 gene.
Exclusion criteria comprised subjects suffering from a clinically significant illness, either mental or physical, that, in the investigator's opinion, might confound the results of the study or that might prevent them from completing the study, subjects that are pregnant or nursing, subjects that test positive for illicit drugs of that have a history of drug abuse, subjects that consume alcoholic beverages, or subjects for which the investigator is otherwise concerned regarding their compliance or suitability.
NFC-1 capsules of either 50 mg or 200 mg comprising fasoracetam monohydrate as active ingredient and placebo capsules comprising microcellulose were used for the study. The design of the trial was a phone screening (1 day), enrollment phase (1 to 2 days), a wash-out phase for subjects currently on ADHD medications (1-14 days), pharmacokinetic (PK) assessment (2 days), followed by a dose-escalation phase (35 days) and a follow-up phone visit approximately four weeks after the last dose, for a maximum of 127 days. All ADHD medications were discontinued during the wash-out phase prior to the study. The wash-out period for stimulants was 2-3 days and that for atomoxetine or noradrenergic agonists was 10-12 days. No new ADHD medications were started during the study.
A dose-escalation phase of the trial ran over a 5-week period, after the initial wash-out period and the PK and initial safety assessments. […]

In series [2] the test system is dementia-related cognitive impairment. Particulars: cited from earlier work.
The conditions of series [3]: prior human studies; cited from earlier work.

Regarding `O=C1CC[C@H](C(=O)N2CCCCC2)N1` [NFC-1, fasoracetam monohydrate], the OCD symptoms result in series [1] (all eight subjects with OCD symptoms, during therapy) is reported as “improved”. Moreover, the “dermatillomania symptoms (ear scratching, bleeding ulcer)” value in series [1] (one subject with OCD and a history of ear scratching, during therapy) was “reduced”. Further, in series [1] (week 5, one subject meeting conduct disorder criteria, decreased from 16 at week 1 (placebo week), 50-400 mg bid dose escalation), the “conduct disorder symptoms, Vanderbilt items 27-40 score” value amounted to 12. Further, the safety and tolerability entry in series [2] (Phase I-III trials, dementia-related cognitive impairment) was “generally safe and well tolerated”. For the same compound, in series [2] (Phase III data, cerebral infarct patients and adult dementia patients with cerebrovascular diseases), the “effects on psychiatric symptoms” value is “beneficial effects”. For the same compound, the efficacy in dementia result in series [2] (Phase III trials) is recorded as “did not show sufficient efficacy”.
As for `O=C1CC[C@H](C(=O)N2CCCCC2)N1` [Fasoracetam, fasoracetam], the bioavailability in series [3] was 79%-97%.
